Source: patent US20240425513A1, “OXAZOLE, OXADIAZOLE, AND INDOLE DERIVATIVES FOR THE INHIBITION OF USP28” (Carmot Therapeutics, Inc., priority 2021, published 2024)

Each compound was assayed against His6 USP28 (Homo sapiens (Human), UniProt Q96RU2) (assay: Ubiquitin-Rhodamine 110 assay to determine USP28 IC50). Details: USP28 150 pM, Ub-Rho110 41 nM, 2 h pre-incubation with enzyme, fluorescence read.
Format: biochemical
Protocol: Example 21. Ubiquitin-Rhodamine 110 Assay to Determine USP28 IC50
Each assay was performed in a final volume of 8 μl in assay buffer containing 10 mM HEPES pH 7.3 ((1 M, pH 7.3 solution, (VWR J848), 100 mM NaCl (5 M, Corning 46-032-CV), 0.01% Triton X-100 (Sigma #T8787), 3.5 mM DTT (1 M, Sigma #43819) and 0.00375% BSA (10%, Calbiochem, #126609)). The assay buffer pH was adjusted to 7.5 using 1 N NaOH (JT Baker, #5000-03). Stock compounds were stored at −80° C. as a 25 mM in DMSO solution along with their respective 20 point 2 fold serial dilutions. For the dose responses, stock compound plates were allowed to come to room temperature the day of the assay. […] of the serial dilution series were pre stamped into assay plates (Black, high base, medium binding, Greiner #782076) for a final top screening concentration of 125 μM (DMSO final concentration=0.5%). Enzyme (His6 USP28, BostonBiochem, #E-570) concentration and incubation times were optimized for the maximal signal to background while maintaining the initial velocity conditions at a fixed substrate concentration. The final concentration of the enzyme in the assay was 150 pM. Final substrate (Ub-Rhol10, Ubiquitin-Rhodamine 110, UBPBio, #M3020) concentration was 41 nM. 2 μl of 4× enzyme was added to assay plates (pre stamped with compound) and incubated for 2 h at room temperature. […] was subsequently added to the assay plates and incubated for 2 h at room temperature. Fluorescence was then read on the Envision (Excitation 485 nm and Emission at 535 nm, Perkin Elmer).

His6 USP28, sequence (Q96RU2 whole entry): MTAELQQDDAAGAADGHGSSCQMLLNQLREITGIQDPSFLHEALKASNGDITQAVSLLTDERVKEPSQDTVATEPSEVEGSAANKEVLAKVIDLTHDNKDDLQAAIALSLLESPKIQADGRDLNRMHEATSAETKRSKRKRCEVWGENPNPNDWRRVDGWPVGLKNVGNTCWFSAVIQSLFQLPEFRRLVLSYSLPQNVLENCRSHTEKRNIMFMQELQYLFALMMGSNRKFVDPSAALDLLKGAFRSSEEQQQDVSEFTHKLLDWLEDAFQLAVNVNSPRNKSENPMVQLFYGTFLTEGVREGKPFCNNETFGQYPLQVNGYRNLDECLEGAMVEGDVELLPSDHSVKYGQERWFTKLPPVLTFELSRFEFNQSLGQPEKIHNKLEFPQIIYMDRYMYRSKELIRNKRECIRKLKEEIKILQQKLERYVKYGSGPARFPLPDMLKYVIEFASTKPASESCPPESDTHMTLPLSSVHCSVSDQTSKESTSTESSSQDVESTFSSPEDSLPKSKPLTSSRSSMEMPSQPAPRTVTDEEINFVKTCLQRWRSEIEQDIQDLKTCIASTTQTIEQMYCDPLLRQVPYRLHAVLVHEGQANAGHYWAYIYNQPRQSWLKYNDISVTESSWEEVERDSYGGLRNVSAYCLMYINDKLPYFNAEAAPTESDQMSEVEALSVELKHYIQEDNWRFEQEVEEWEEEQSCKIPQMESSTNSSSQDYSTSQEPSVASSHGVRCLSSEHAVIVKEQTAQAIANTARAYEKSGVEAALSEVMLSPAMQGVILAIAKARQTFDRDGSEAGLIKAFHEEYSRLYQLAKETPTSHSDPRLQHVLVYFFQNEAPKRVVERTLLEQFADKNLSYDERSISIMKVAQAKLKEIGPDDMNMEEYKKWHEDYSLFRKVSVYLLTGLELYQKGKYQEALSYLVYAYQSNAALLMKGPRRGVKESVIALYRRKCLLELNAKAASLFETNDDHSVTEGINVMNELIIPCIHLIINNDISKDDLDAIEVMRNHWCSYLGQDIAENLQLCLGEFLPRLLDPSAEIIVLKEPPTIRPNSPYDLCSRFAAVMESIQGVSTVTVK

Q: How did the IC50 turn out when `Cc1oc(Cc2cccc(Cl)c2)nc1-c1ccc(OCc2ccc(C(=O)N3CCC[C@@H](C(=O)O)C3)cn2)cc1` [Compound 32, (3R)-1-{6-[(4-{2-[(3-Chlorophenyl)methyl]-5-methyl-1,3-oxazol-4-yl}phenoxy)methyl]pyridine-3-carbonyl}piperidine-3-carboxylic acid] was run?
A: Its IC50 is less than 50 nM.

Q: How did the IC50 turn out when `C[C@@H]1C[C@@H](NC(=O)COc2ccc(-c3nc(Cc4ccc(Cl)cc4)no3)cc2)CN1C#N` [Compound 4, 2-(4-{3-[(4-Chlorophenyl)methyl]-1,2,4-oxadiazol-5-yl}phenoxy)-N-[(3R,5R)-1-cyano-5-methylpyrrolidin-3-yl]acetamide] was run?
A: The IC50 was 50 to 500 nM.

Q: How did the IC50 turn out when `Cc1oc(Cc2ccnc(Cl)c2)nc1-c1ccc(OCc2ccc(C(=O)N(C)C)cn2)cc1` [Compound 31, 6-[(4-{2-[(2-Chloropyridin-4-yl)methyl]-5-methyl-1,3-oxazol-4-yl}phenoxy)methyl]-N,N-dimethylpyridine-3-carboxamide] was run?
A: The IC50 was 50 to 500 nM.

Q: For `CN[C@@H]1CCN(C(=O)c2ccc(COc3ccc(-c4nc(Cc5cccc(Cl)c5)oc4C)cc3)nc2)C1` [Compound 36, (3R)-1-{6-[(4-{2-[(3-Chlorophenyl)methyl]-5-methyl-1,3-oxazol-4-yl}phenoxy)methyl]pyridine-3-carbonyl}-N-methylpyrrolidin-3-amine], which IC50 is on record?
A: The IC50 was less than 50 nM.

Q: With `C/C(=C\c1ccc(-c2nc(Cc3cccc(Cl)c3)no2)cc1)C(=O)N[C@@H]1C[C@@H](C)N(C#N)C1` [Compound 13, (E)-3-(4-(3-(3-chlorobenzyl)-1,2,4-oxadiazol-5-yl)phenyl)-N-((3R,5R)-1-cyano-5-methylpyrrolidin-3-yl)-2-methylacrylamide] as the compound, how does the IC50 read?
A: Its IC50 is 500 to 1000 nM.

Q: `Cc1oc(Cc2cccc(Cl)c2)nc1-c1ccc(OCc2cnc(C(=O)N(C)C)cn2)cc1` [Compound 28, 5-[(4-{2-[(3-Chlorophenyl)methyl]-5-methyl-1,3-oxazol-4-yl}phenoxy)methyl]-N,N-dimethylpyrazine-2-carboxamide] was tested. Which IC50 did it give?
A: Its IC50 is less than 50 nM.

Q: How did the IC50 turn out when `C[C@@H]1C[C@@H](NC(=O)COc2ccc(-c3nc(Cc4cccc(Cl)c4)no3)nc2)CN1C#N` [Compound 12, 2-[(6-{3-[(3-Chlorophenyl)methyl]-1,2,4-oxadiazol-5-yl}pyridin-3-yl)oxy]-N-[(3R,5R)-1-cyano-5-methylpyrrolidin-3-yl]acetamide] was run?
A: The IC50 was greater than 1000 nM.

Q: For `CC(=O)N1CCN(C(=O)c2cc3cc(OCc4ccccc4)ccc3[nH]2)C[C@@H]1C(=O)N[C@H]1C[C@@H](C)N(C#N)C1` [Compound 42], which IC50 is on record?
A: The IC50 was 50 to 500 nM.
